Measured values published in patent US9522167B2, “Alphanizomenon flos aquae preparation, extracts and purified components thereof for the treatment of neurological, neurodegenerative and mood disorders” (Nutratec, s.r.l., priority 2006, dated 2016).

Key:
MAO-B = conditions: literature values (ref. 45), cited from earlier work; for IC50: read-out: IC50 of MAO-B inhibition; for Ki: read-out: Ki of MAO-B inhibition
neurons = assay: Neuroprotection against glutamate-induced apoptosis of cultured neurons (DAPI staining); format: cell-based; conditions: glutamate 100 μM plus 10 μM glycine, 30 min pre-incubation, apoptosis after 24 h
Experimental: The exposure of neurons to glutamate was carried according to a slightly modified method (50): culture medium was removed and neurons were washed once with prewarmed 37° C. buffered Hanks' solution (5.26 mM KCl, 0.43 mM KH2H2PO4, 132.4 mM NaCl, 4.09 mM NaHCO3, 0.33 mM Na2HPO4, 20 mM glucose, 2 mM CaCl2, and 20 mM HEPES, pH 7.4) and pre-incubated in the absence or presence of several concentrations of AFA extract (1-50 nM), PC (10-1000 nM), PCB (10-1000 nM) and MAA (1-10 μM) in prewarmed 37° C. buffered Hanks' solution. After 30 min of pre-incubation, L-glutamate was added from concentrated solutions to the final concentration indicated 100 μM plus 10 μM glycine. […]
Apoptosis was assessed by staining the nuclei of cells with DAPI (50), a membrane-permeable fluorescent dye that binds DNA and allows quantification of apoptotic neurons, i.e., neurons displaying fragmented or condensed nuclei. […] Cells were scored for chromatin condensation by fluorescence microscopy, using a fluorescein filter (330-380 excitation; 30× magnification). Total and apoptotic nuclei were counted. In all cases, approximately 600-1,000 cells were counted per well by an operator blind to the protocol design. Measurements from individual cultures were performed in duplicate and results are expressed as the mean S.E.M. values for the number of culture preparations indicated. […]

Row | Compound | Inhibition type (MAO-B) | IC50 (MAO-B) [µM] | Ki (MAO-B) [µM] | amount lowering apoptosis below the control level (neurons)
1 | Oc1cc(O)c2c(c1)OC(c1ccc(O)c(O)c1)C(O)C2 (stereo not drawn) [Catechine] | Mixed | 88.6 |  | 
2 | Cc1cc(O)c2c(c1)C(=O)c1cc(O)cc(O)c1C2=O [Emodin] | Mixed | 35.4 | 15.1 | 
3 | COc1ccc(C(C)=O)c(O)c1 [Paeonol] | Competitive | 42.5 | 38.2 | 
4 | Epicatechine | Mixed | 58.9 | 21 | 
5 | phycocyanobilin [PCB] |  |  |  | approximately 10 nM
